Like-named read-outs stand apart in the source and are kept apart here.
What was measured:
Assay in all cases: TGFα-shedding assay-based GPCR screening with chimeric Gα subunit proteins
Format in all cases: cell-based
[1] = molecular target: T1, 348 GPCRs (Homo sapiens, UniProt P41597); conditions: 10µM, Favipiravir 100μM
T1 construct: expressed in transfected cells; host or cells: HEK293A

[2] = molecular target: T2, 348 GPCRs (Homo sapiens, UniProt P08173)
T2 construct: expressed in transfected cells; host or cells: HEK293A
T2 sequence (P08173 1-479): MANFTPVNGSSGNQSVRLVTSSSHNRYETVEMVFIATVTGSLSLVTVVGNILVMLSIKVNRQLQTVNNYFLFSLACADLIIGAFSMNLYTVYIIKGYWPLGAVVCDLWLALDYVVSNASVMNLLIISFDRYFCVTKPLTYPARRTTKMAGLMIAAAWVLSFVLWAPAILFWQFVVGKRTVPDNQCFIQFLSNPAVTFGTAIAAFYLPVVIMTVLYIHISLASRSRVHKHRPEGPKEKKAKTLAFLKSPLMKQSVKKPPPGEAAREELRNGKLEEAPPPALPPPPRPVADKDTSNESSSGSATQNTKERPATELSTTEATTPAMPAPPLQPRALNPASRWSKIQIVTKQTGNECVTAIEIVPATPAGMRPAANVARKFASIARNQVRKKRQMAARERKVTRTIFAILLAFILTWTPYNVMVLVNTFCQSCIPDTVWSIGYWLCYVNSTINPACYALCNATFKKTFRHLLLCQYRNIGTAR

[3] = molecular target: T3, 348 GPCRs (Homo sapiens, UniProt Q8NFN8); conditions: 10µM, Favipiravir 100μM
T3 construct: expressed in transfected cells; host or cells: HEK293A
T3 sequence (Q8NFN8 1-814): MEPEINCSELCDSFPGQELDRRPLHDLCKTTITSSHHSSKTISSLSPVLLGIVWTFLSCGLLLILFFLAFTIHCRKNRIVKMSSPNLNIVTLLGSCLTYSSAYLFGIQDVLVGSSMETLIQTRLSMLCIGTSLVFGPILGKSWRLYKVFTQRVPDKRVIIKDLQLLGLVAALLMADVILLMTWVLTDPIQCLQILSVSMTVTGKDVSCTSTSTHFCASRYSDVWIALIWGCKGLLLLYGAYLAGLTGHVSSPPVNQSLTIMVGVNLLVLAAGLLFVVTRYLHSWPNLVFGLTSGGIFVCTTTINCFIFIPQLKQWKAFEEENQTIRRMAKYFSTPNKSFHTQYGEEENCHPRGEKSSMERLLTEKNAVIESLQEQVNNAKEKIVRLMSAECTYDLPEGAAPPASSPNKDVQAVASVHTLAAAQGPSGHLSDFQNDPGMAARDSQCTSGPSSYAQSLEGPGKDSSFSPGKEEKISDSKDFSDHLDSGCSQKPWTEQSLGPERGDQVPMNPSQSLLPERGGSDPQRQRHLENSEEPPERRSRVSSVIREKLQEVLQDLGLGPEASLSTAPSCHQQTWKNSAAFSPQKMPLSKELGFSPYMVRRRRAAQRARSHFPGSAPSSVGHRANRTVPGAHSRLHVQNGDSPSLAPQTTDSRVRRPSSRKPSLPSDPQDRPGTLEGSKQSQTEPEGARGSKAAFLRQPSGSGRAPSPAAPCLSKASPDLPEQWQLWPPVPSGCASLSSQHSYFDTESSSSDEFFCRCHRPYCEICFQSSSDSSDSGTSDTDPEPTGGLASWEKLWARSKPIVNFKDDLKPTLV

[4] = molecular target: T4, 348 GPCRs (Homo sapiens, UniProt P24530); conditions: 10µM, Favipiravir 100μM
T4 construct: expressed in transfected cells; host or cells: HEK293A
T4 sequence (P24530 27-442): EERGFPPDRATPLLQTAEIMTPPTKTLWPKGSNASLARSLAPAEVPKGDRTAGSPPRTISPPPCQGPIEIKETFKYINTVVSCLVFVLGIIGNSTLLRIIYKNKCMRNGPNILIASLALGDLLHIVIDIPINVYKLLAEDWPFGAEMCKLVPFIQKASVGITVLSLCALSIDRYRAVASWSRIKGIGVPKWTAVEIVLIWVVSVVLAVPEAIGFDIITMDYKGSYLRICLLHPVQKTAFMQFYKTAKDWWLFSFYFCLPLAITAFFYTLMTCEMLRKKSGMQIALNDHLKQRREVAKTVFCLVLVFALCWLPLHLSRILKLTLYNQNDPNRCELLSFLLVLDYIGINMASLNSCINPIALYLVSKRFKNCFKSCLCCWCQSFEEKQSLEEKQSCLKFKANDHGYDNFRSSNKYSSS

[5] = molecular target: T5, 348 GPCRs (Homo sapiens, UniProt P18825)
T5 construct: expressed in transfected cells; host or cells: HEK293A
T5 sequence (P18825 1-462): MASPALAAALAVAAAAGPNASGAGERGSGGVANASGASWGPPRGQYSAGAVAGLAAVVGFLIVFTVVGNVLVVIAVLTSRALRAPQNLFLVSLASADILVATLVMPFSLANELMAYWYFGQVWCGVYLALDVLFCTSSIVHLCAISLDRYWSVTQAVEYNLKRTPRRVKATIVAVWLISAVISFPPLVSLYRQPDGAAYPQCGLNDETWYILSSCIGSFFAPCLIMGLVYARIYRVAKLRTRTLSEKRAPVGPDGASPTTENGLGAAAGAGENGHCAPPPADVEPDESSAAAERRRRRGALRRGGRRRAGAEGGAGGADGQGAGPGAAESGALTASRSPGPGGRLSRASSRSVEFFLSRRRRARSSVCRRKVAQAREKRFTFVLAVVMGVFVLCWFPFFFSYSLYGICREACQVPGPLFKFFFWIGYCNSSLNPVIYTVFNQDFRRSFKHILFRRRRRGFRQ

[6] = molecular target: T6, 348 GPCRs (Homo sapiens, UniProt Q8TDV5)
T6 construct: expressed in transfected cells; host or cells: HEK293A
T6 sequence (Q8TDV5 1-335): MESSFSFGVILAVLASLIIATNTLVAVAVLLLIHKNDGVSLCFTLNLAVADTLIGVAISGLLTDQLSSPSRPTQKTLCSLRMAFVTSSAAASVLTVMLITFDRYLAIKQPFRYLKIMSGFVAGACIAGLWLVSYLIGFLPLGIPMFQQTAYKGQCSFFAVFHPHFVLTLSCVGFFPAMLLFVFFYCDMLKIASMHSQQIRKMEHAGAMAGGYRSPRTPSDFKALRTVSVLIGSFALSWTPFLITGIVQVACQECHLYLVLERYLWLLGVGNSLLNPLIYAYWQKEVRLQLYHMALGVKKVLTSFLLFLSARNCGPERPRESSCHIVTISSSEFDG

[7] = CCR2 (C-C motif chemokine receptor 2), read-out: % GPCR activation compared to TPA
[8] = GPCR M4 (Muscarinic acetylcholine receptor M4), read-out: % GPCR activation compared to TPA
[9] = GPR156 (G protein-coupled receptor 156), read-out: % GPCR activation compared to TPA
[10] = EDNRB (endothelin receptor type B), read-out: % GPCR activation compared to TPA
[11] = GPCR α2C (adrenoceptor alpha 2C), read-out: % GPCR activation compared to TPA
[12] = GPCR GPR119 (G protein-coupled receptor 119), read-out: % GPCR activation compared to TPA
[13] = read-out: % GPCR activation compared to TPA, CCR2 (C-C motif chemokine receptor 2)
[14] = read-out: % GPCR activation compared to TPA, GPCR M4 (Muscarinic acetylcholine receptor M4)
[15] = read-out: % GPCR activation compared to TPA, GPR156 (G protein-coupled receptor 156)
[16] = read-out: % GPCR activation compared to TPA, EDNRB (endothelin receptor type B)
[17] = read-out: % GPCR activation compared to TPA, GPCR α2C (adrenoceptor alpha 2C)
[18] = read-out: % GPCR activation compared to TPA, GPCR GPR119 (G protein-coupled receptor 119)

T1 sequence (P41597 whole entry): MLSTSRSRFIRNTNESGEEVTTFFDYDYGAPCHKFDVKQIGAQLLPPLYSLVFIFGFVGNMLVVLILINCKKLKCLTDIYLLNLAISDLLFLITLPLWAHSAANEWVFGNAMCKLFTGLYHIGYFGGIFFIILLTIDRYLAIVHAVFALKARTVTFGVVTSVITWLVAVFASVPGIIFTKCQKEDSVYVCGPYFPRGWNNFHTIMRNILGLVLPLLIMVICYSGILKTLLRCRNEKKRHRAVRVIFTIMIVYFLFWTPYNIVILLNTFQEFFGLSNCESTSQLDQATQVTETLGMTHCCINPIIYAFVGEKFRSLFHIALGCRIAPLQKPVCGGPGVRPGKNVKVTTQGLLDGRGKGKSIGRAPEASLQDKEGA

| activation at 100 µM [1, 7] | activation at 10 µM [2, 8] | activation at 10 µM [3, 9] | activation at 100 µM [4, 10] | activation at 10 µM [5, 11] | activation at 10 µM [6, 12] | activation at 100 µM ([2]; GPCR M4 (Muscarinic acetylcholine receptor M4), 100μM, read-out: % GPCR activation compared to TPA) | activation at 100 µM ([5]; GPCR α2C (adrenoceptor alpha 2C), 100μM, read-out: % GPCR activation compared to TPA) | activation at 100 µM ([6]; GPCR GPR119 (G protein-coupled receptor 119), 100μM, read-out: % GPCR activation compared to TPA) | Compound | activation at 100 µM [1, 13] | activation at 10 µM [2, 14] | activation at 10 µM [3, 15] | activation at 100 µM [4, 16] | activation at 10 µM [5, 17] | activation at 10 µM [6, 18] |
| --- | --- | --- | --- | --- | --- | --- | --- | --- | --- | --- | --- | --- | --- | --- | --- |
| 5.66% |  | 2.77% | -3.11% |  |  | -6.29% | 7% | 3.67% | NC(=O)c1nc(F)cnc1O [favipiravir, 6-fluoro-3-hydroxy-2-pyrazinecarboxamide] |  |  |  |  |  |  |
| 0.105% | -1.11% | -4.86% | -3.6% | -6.27% | -26.9% |  |  |  | CC(C)C(=O)OC[C@H]1O[C@@H](n2ccc(NO)nc2=O)[C@H](O)[C@@H]1O [molnupiravir] |  |  |  |  |  |  |

Continued, molecule first:

| Compound | activation at 100 µM [1, 7] | activation at 10 µM [2, 8] | activation at 10 µM [3, 9] | activation at 100 µM [4, 10] | activation at 10 µM [5, 11] | activation at 10 µM [6, 12] | activation at 100 µM ([2]; GPCR M4 (Muscarinic acetylcholine receptor M4), 100μM, read-out: % GPCR activation compared to TPA) | activation at 100 µM ([5]; GPCR α2C (adrenoceptor alpha 2C), 100μM, read-out: % GPCR activation compared to TPA) | activation at 100 µM ([6]; GPCR GPR119 (G protein-coupled receptor 119), 100μM, read-out: % GPCR activation compared to TPA) | activation at 100 µM [1, 13] | activation at 10 µM [2, 14] | activation at 10 µM [3, 15] | activation at 100 µM [4, 16] | activation at 10 µM [5, 17] | activation at 10 µM [6, 18] |
| --- | --- | --- | --- | --- | --- | --- | --- | --- | --- | --- | --- | --- | --- | --- | --- |
| N#C[C@@]1(c2ccc3c(N)ncnn23)O[C@H](CO)[C@@H](O)[C@H]1O [GS441524] | 2.78% | -4.09% | 1.38% | -4.24% | 2.32% | 5.33% |  |  |  |  |  |  |  |  |  |
| CCC(CC)COC(=O)[C@H](C)N[P@](=O)(OC[C@H]1O[C@@](C#N)(c2ccc3c(N)ncnn23)[C@H](O)[C@@H]1O)Oc1ccccc1 [remdesivir] |  |  |  |  |  |  |  |  |  | 5.23% | -2.98% | 4.05% | -2.2% | 15.6% | 7.14% |
| CC(C)OC(=O)[C@H](C)N[P@](=O)(OC[C@H]1O[C@@H](n2ccc(=O)[nH]c2=O)[C@](C)(F)[C@@H]1O)Oc1ccccc1 [sofosbuvir] |  |  |  |  |  |  |  |  |  | -0.876% | -1.57% | -4.51% | -2.57% | -4.42% | -6.04% |

— paper PMC10175918 (Communications Biology, 2023)
